The source of these data is US10766909B2, “Process for preparing halogenated pyridine derivatives” (Bayer CropScience Aktiengesellschaft, priority 2016, dated 2020).

Each structure is given as a SMILES string.

This series can be described thus: log P by HPLC-MS. It is filed as physicochemical.
`Fc1ccc(Br)nc1I` [Example 3, 6-bromo-3-fluoro-2-iodopyridine] returned a chromatographic logP of 2.67.
Molecule `Fc1ccc(Cl)nc1I` [Example 1, 6-chloro-3-fluoro-2-iodopyridine] came in with a chromatographic logP of 2.53.
Turning to `COC(=O)c1ccc(F)c(I)n1` [Example 2, methyl 5-fluoro-6-iodopyridine-2-carboxylate], the chromatographic logP was found to be 1.85.

In general, chromatographic logP refers to lipophilicity estimated from chromatographic retention.
